The values below come from PubChem BioAssay AID1259407 (Chemical Carcinogenesis Research Information System (CCRIS), 2018).

For the data set, the system named is CCRIS mutagenicity, Ames/micronucleus/aberration tests. Put plainly: CCRIS mutagenicity studies.
[1] abbreviates: Test System: AMES SALMONELLA TYPHIMURIUM, Strain/Indicator: TA98, Metabolic Activation: NONE, Method: PREINCUBATION
Where [2] appears, read: Test System: AMES SALMONELLA TYPHIMURIUM, Strain/Indicator: TA98, Metabolic Activation: RAT LIVER S-9, PHENOBARBITAL AND BETA-NAPHTHOFLAVONE, Method: PREINCUBATION
The mark [3] stands for this setting: Test System: AMES SALMONELLA TYPHIMURIUM, Strain/Indicator: TA100, Metabolic Activation: NONE, Method: PREINCUBATION
Setting [4] is: Test System: AMES SALMONELLA TYPHIMURIUM, Strain/Indicator: TA100, Metabolic Activation: RAT LIVER S-9, PHENOBARBITAL AND BETA-NAPHTHOFLAVONE, Method: PREINCUBATION
The mark [5] stands for this setting: Test System: AMES SALMONELLA TYPHIMURIUM, Strain/Indicator: TA1535, Metabolic Activation: NONE, Method: PREINCUBATION
[6] abbreviates: Test System: AMES SALMONELLA TYPHIMURIUM, Strain/Indicator: TA1535, Metabolic Activation: RAT LIVER S-9, PHENOBARBITAL AND BETA-NAPHTHOFLAVONE, Method: PREINCUBATION
Setting [7] is: Test System: AMES SALMONELLA TYPHIMURIUM, Strain/Indicator: TA1537, Metabolic Activation: NONE, Method: PREINCUBATION
Where [8] appears, read: Test System: AMES SALMONELLA TYPHIMURIUM, Strain/Indicator: TA1537, Metabolic Activation: RAT LIVER S-9, PHENOBARBITAL AND BETA-NAPHTHOFLAVONE, Method: PREINCUBATION
Where [9] appears, read: Test System: E.COLI, Strain/Indicator: WP2UVRA/PKM101, Metabolic Activation: NONE, Method: PREINCUBATION
Setting [10] is: Test System: E.COLI, Strain/Indicator: WP2UVRA/PKM101, Metabolic Activation: RAT LIVER S-9, PHENOBARBITAL AND BETA-NAPHTHOFLAVONE, Method: PREINCUBATION
Where [11] appears, read: Test System: AMES SALMONELLA TYPHIMURIUM, Strain/Indicator: TA98, Metabolic Activation: RAT, LIVER, S-9, AROCLOR 1254 (10%), Method: PREINCUBATION
[12] abbreviates: Test System: AMES SALMONELLA TYPHIMURIUM, Strain/Indicator: TA100, Metabolic Activation: HAMSTER, LIVER, S-9, AROCLOR 1254 (10%), Method: PREINCUBATION
Setting [13] is: Test System: AMES SALMONELLA TYPHIMURIUM, Strain/Indicator: TA100, Metabolic Activation: RAT, LIVER, S-9, AROCLOR 1254 (10%), Method: PREINCUBATION
The mark [14] stands for this setting: Test System: AMES SALMONELLA TYPHIMURIUM, Strain/Indicator: TA1535, Metabolic Activation: HAMSTER, LIVER, S-9, AROCLOR 1254 (10%), Method: PREINCUBATION
[15] abbreviates: Test System: AMES SALMONELLA TYPHIMURIUM, Strain/Indicator: TA1535, Metabolic Activation: RAT, LIVER, S-9, AROCLOR 1254 (10%), Method: PREINCUBATION
Where [16] appears, read: Test System: AMES SALMONELLA TYPHIMURIUM, Strain/Indicator: TA1537, Metabolic Activation: HAMSTER, LIVER, S-9, AROCLOR 1254 (10%), Method: PREINCUBATION
The mark [17] stands for this setting: Test System: AMES SALMONELLA TYPHIMURIUM, Strain/Indicator: TA1537, Metabolic Activation: RAT, LIVER, S-9, AROCLOR 1254 (10%), Method: PREINCUBATION

Active and inactive are the calls of the source. The rule behind the calls is not given here.

On to `O=C(O)c1ccccc1O`, for which the mutagenic call runs as follows: (Test System: AMES SALMONELLA TYPHIMURIUM, Strain/Indicator: TA98, Metabolic Activation: GUINEA PIG, LIVER, S-9, PCB, Method: PREINCUBATION) “inactive; negative”; (Test System: AMES SALMONELLA TYPHIMURIUM, Strain/Indicator: TA98, Metabolic Activation: HAMSTER, LIVER, S-9, PCB, Method: PREINCUBATION) “inactive; negative”; (Test System: AMES SALMONELLA TYPHIMURIUM, Strain/Indicator: TA98, Metabolic Activation: MOUSE, LIVER, S-9, PCB, Method: PREINCUBATION) “inactive; negative”; under setting [1], “inactive; negative”; under setting [2], “inactive; negative”; (Test System: AMES SALMONELLA TYPHIMURIUM, Strain/Indicator: TA98, Metabolic Activation: RAT, LIVER, S-9, PCB, Method: PREINCUBATION) “inactive; negative”. The mutagenic call reads like this: (Test System: AMES SALMONELLA TYPHIMURIUM, Strain/Indicator: TA100, Metabolic Activation: GUINEA PIG, LIVER, S-9, PCB, Method: PREINCUBATION) “inactive; negative”; (Test System: AMES SALMONELLA TYPHIMURIUM, Strain/Indicator: TA100, Metabolic Activation: HAMSTER, LIVER, S-9, PCB, Method: PREINCUBATION) “inactive; negative”; (Test System: AMES SALMONELLA TYPHIMURIUM, Strain/Indicator: TA100, Metabolic Activation: MOUSE, LIVER, S-9, PCB, Method: PREINCUBATION) “inactive; negative”; under setting [3], “inactive; negative”; under setting [4], “inactive; negative”; under setting [5], “inactive; negative”. In addition, the mutagenic call by setting is: under setting [6], “inactive; negative”; under setting [7], “inactive; negative”; under setting [8], “inactive; negative”; under setting [9], “inactive; negative”; under setting [10], “inactive; negative”.
Consider `Nc1cccc(Cl)c1`, for which the mutagenic call by setting is: (End Point: IN VITRO CHROMOSOMAL ABERRATIONS, Test System: CHL/IU CELLS, Metabolic Activation: NONE) “active; positive (structural changes)”; (End Point: IN VITRO MICRONUCLEUS, Test System: CHL/IU CELLS, Metabolic Activation: NONE) “active; positive”; under setting [1], “inactive; negative”; under setting [11], “inactive; negative”; under setting [12], “inactive; negative”; under setting [3], “inactive; negative”. Moreover, the mutagenic call by setting is: under setting [13], “inactive; negative”; under setting [14], “inactive; negative”; under setting [5], “inactive; negative”; under setting [15], “inactive; negative”; under setting [16], “inactive; negative”; under setting [7], “inactive; negative”. Further, the mutagenic call runs as follows: under setting [17], “inactive; negative”; (Test System: CHINESE HAMSTER V-79, Strain/Indicator: V-79/8-AZAGUANINE, Metabolic Activation: NONE, Method: SUSPENSION/PLATE) “active; positive”; (Test System: CHINESE HAMSTER V-79, Strain/Indicator: V-79/OUABAIN, Metabolic Activation: NONE, Method: SUSPENSION/PLATE) “inactive; negative”.
For `O=P1(NCCCl)OCCCN1CCCl` (stereo unspecified), the mutagenic call was “active; positive” (Test System: AMES SALMONELLA TYPHIMURIUM, Strain/Indicator: TA100, Metabolic Activation: NADPH, Method: PREINCUBATION); “active; positive” under setting [3]; “inactive; negative” (Test System: AMES SALMONELLA TYPHIMURIUM, Strain/Indicator: TA100, Metabolic Activation: RAT, LIVER, HEPATOCYTES, PHENOBARBITAL, Method: PREINCUBATION); “active; positive” (Test System: AMES SALMONELLA TYPHIMURIUM, Strain/Indicator: TA100, Metabolic Activation: RAT, LIVER, S-9, AROCLOR 1254, Method: STANDARD PLATE); “active; positive” (Test System: AMES SALMONELLA TYPHIMURIUM, Strain/Indicator: TA100, Metabolic Activation: RAT, LIVER, S-9, PHENOBARBITAL, NADPH, Method: PREINCUBATION); “active; positive” (Test System: AMES SALMONELLA TYPHIMURIUM, Strain/Indicator: TA100, Metabolic Activation: RAT, LIVER, S-9, PHENOBARBITAL, Method: PREINCUBATION). The mutagenic call is “active; positive” (Test System: AMES SALMONELLA TYPHIMURIUM, Strain/Indicator: TA1535, Metabolic Activation: RAT, LIVER, HEPATOCYTES, PHENOBARBITAL, Method: PREINCUBATION) and “active; positive” (Test System: AMES SALMONELLA TYPHIMURIUM, Strain/Indicator: TA1535, Metabolic Activation: RAT, LIVER, S-9, AROCLOR 1254, Method: STANDARD PLATE).
As for `C1=Cc2ccc3nc4ccc5ccccc5c4cc3c2CC1`, the mutagenic call (Test System: AMES SALMONELLA TYPHIMURIUM, Strain/Indicator: TA98, Metabolic Activation: GUINEA PIG, LIVER, S-9, 3-METHYLCHOLANTHRENE, Method: STANDARD PLATE) is “active; positive” and the mutagenic call (Test System: AMES SALMONELLA TYPHIMURIUM, Strain/Indicator: TA100, Metabolic Activation: GUINEA PIG, LIVER, S-9, 3-METHYLCHOLANTHRENE, Method: STANDARD PLATE) was “active; positive”.
Turning to `CC1(C)CC(N=C=O)CC(C)(CN=C=O)C1` (stereo unspecified), the mutagenic call by setting is: (Test System: AMES SALMONELLA TYPHIMURIUM, Strain/Indicator: TA98, Metabolic Activation: HAMSTER, LIVER, S-9, AROCLOR 1254 (10%), Method: PREINCUBATION) “inactive; negative”; under setting [1], “inactive; negative”; under setting [11], “inactive; negative”; under setting [12], “inactive; negative”; under setting [3], “inactive; negative”; under setting [13], “inactive; negative”. Besides, the mutagenic call by setting is: under setting [14], “inactive; negative”; under setting [5], “inactive; negative”; under setting [15], “inactive; negative”; under setting [16], “inactive; negative”; under setting [7], “inactive; negative”; under setting [17], “inactive; negative”.
Regarding `O=C1C2(Cl)C3(Cl)C4(Cl)C(Cl)(Cl)C5(Cl)C3(Cl)C1(Cl)C5(Cl)C24Cl` (stereo unspecified), the mutagenic call is “inactive; negative” (End Point: IN VITRO CHROMOSOMAL ABERRATIONS, Test System: CHINESE HAMSTER OVARY CELLS, Metabolic Activation: NONE) and “inactive; negative” (End Point: IN VITRO CHROMOSOMAL ABERRATIONS, Test System: CHINESE HAMSTER OVARY CELLS, Metabolic Activation: RAT, LIVER, S-9, AROCLOR 1254).
Turning to `CC(C)c1ccccc1O`, the mutagenic call runs as follows: under setting [1], “inactive; negative”; under setting [2], “inactive; negative”; under setting [3], “inactive; negative”; under setting [4], “inactive; negative”; under setting [5], “inactive; negative”; under setting [6], “inactive; negative”. Moreover, the mutagenic call is “inactive; negative” under setting [7], “inactive; negative” under setting [8], “inactive; negative” under setting [9] and “inactive; negative” under setting [10].
